Source: US20090047278A1, “Novel Combinational Use of Sulfonamide Compound” (Eisai R & D Management Co., Ltd., priority 2005, published 2009)

How the values were obtained:
[1] = tested on: human non-small-cell lung cancer cell line (A549); experiment: E7820 and gefitinib in subcutaneous transplant model of A549; assay type: in vivo; settings: A549 s.c. in nude mouse; oral; E7820 50 mg/kg twice a day, gefitinib 75 mg/kg once a day, 3 weeks; Day 1 = first administration
Procedure: (§1) Human non-small-cell lung cancer cell line A549 (purchased from Dainippon Pharmaceutical) was cultured in RPMI1640 (containing 10% FBS) in a 5% carbon dioxide incubator at 37° C. to about 80% confluence, and the cells were collected with trypsin-EDTA. Using a phosphate buffer containing 50% matrigel, 5×10^7 cells/mL suspension was prepared, and 0.1 mL each of the resulting cell suspension was subcutaneously transplanted to a nude mouse at the side of its body. Ten days after the transplantation, E7820 and gefitinib were orally administered alone or in combination for 50 mg/kg twice a day for 3 weeks and for 75 mg/kg once a day for 3 weeks, respectively. The major and minor axes of tumors were measured with Digimatic caliper (Mitsutoyo), and tumor volumes and relative tumor volumes were calculated according to the following formulae.
Tumor Volume TV=Major axis of tumor(mm)×(minor axis of tumor)^2(mm^2)/2
(§2) Relative Tumor Volume RTV=Tumor volume on measurement day/Tumor volume on the first administration day

[2] = tested on: human colon cancer cell line (WiDr); experiment: E7820 and cetuximab in subcutaneous transplant model of WiDr; assay type: in vivo; settings: WiDr s.c. in nude mouse; E7820 oral 50 mg/kg twice a day, cetuximab i.p. 100 mg/kg twice a week, 2 weeks; Day 1 = first administration
Procedure: Human colon cancer cell line WiDr (obtained from Dainippon Pharmaceutical) was cultured in RPMI1640 (containing 10% FBS) in a 5% carbon dioxide incubator at 37° C. to about 80% confluence, and the cells were collected with trypsin-EDTA. Using a phosphate buffer, 5×10^7 cells/mL suspension was prepared, and 0.1 mL each of the resulting cell suspension was subcutaneously transplanted to a nude mouse at the side of its body.

[3] = tested on: HCT116 cells; experiment: DNA microarray analysis of gene expression changes, correlation and cluster analysis (Example 8); assay type: cell-based, human; settings: HCT116, 24 hours, at twice the 50% growth inhibitory concentration; different from profiles of the other six compounds
Procedure: HCT116 cells were cultured in an RPMI-1640 medium supplemented with 10% fetal bovine serum, 100 units/ml penicillin and 100 μg/ml streptomycin. The following cultivation and compound treatment were carried out in an incubator at 5% CO2 and 37° C. HCT116 cells were seeded in 10 cm-diameter cell culture dishes at 2.0×10^6 cells/dish, cultured for 24 hours and subjected to the following compound treatment.
In this example, changes in the gene expression of HCT116 cells upon treatments with 12 compounds, i.e., E7820 (0.16 μM), E7070 (0.26 μM), LY186641 (59 μM), LY295501 (24 μM), LY-573636 (9.6 μM), CQS (4.0 μM), MST16 (100 μM), etoposide (3.6 μM), ethoxzolamide (410 μM), capsaicin (280 μM), trichostatin A (0.16 μM) and kenpaullone (7.1 μM) were examined.
The concentration of each compound used for the treatment was set to twice the 50% growth inhibitory concentration of each compound to the HCT116 cells (based on three days of antiproliferative activity using MTT). The cells were collected 24 hours after the treatment at the concentration indicated in parentheses following each compound name above. Similarly, cells cultured for 24 hours without the addition of any compound were also collected.
Total RNA extraction from the collected cells was performed using TRIZOL reagent (Invitrogen) according to the attached instruction.
Gene expression analysis using a DNA microarray was carried out in the same manner as “(2) Analysis of gene expression using DNA microarray” in Example 7.
This example was conducted for each sample in duplicate (for the convenience of the experiment, samples were given branch numbers like control-1, control-2, E7070-1, E7070-2 and so on for distinction). Then, GeneChip (Affymetrix) system (Human Focus array) was used for analyzing changes in the gene expression induced by each compound.
Twenty-six “.cel” files obtained in this example (13 samples (a control+12 compounds)×2) were subjected to RMA method (robust multi-array average method (Biostatistics (2003), 4, 249-264)) for normal distribution at probe level, and then the logarithm value of the signal intensity at gene level was calculated. Next, the logarithm value of the signal intensity of the untreated group (control-1) was subtracted from the logarithm value of the signal intensity of the compound-treated group for each gene to obtain the logarithm value of the signal ratio of the compound-treated group to control-1. Then, cosine correlation coefficients were calculated as correlation coefficients between the experiments (FIG. 9). Based on these correlation coefficients, hierarchical cluster analysis was performed according to UPGMA method (Unweighted Pair Group Method with Arithmetic mean method) (FIG. 10). Control-2 was also subjected to similar calculation (FIGS. 11 and 12). The softwares used were R 2.0.1 (http://www.r-project.org/) and affy package 1.5.8 (http://www.bioconductor.org).

[4] = tested on: human non-small-cell lung cancer cell line (PC9); experiment: E7820 and gefitinib in subcutaneous transplant model of PC9; assay type: in vivo; settings: PC9 s.c. in nude mouse; oral; E7820 50 mg/kg twice a day, gefitinib 75 mg/kg once a day, 2 weeks; Day 1 = first administration
Procedure: Using a phosphate buffer, 5×10^7 cells/mL suspension was prepared, and 0.1 mL each of the resulting cell suspension was subcutaneously transplanted to a nude mouse at the side of its body. Eight days after the transplantation, E7820 and gefitinib were orally administered alone or in combination for 50 mg/kg twice a day for 2 weeks and for 75 mg/kg once a day for 2 weeks, respectively. The major and minor axes of tumors were measured with Digimatic caliper (Mitsutoyo), and tumor volumes and relative tumor volumes were calculated according to the following formulae.
(§3) Tumor Volume TV=Major axis of tumor(mm)×(Minor axis of tumor)^2(mm^2)/2
as §2

[5] = tested on: human non-small-cell lung cancer cell line (A549); experiment: E7820 and erlotinib in subcutaneous transplant model of A549; assay type: in vivo; settings: A549 s.c. in nude mouse; oral; E7820 50 mg/kg twice a day, erlotinib 100 mg/kg once a day, 2 weeks; Day 1 = first administration
Procedure: as §1, with “body. Seventeen” for “body. Ten”, “and erlotinib” for “and gefitinib”, “for 2” for “for 3”, “for 100” for “for 75”
as §3, §2

[6] = tested on: human renal cancer cell line (ACHN); experiment: E7820 and cetuximab in subcutaneous transplant model of ACHN; assay type: in vivo; settings: ACHN s.c. in nude mouse; E7820 oral 50 mg/kg twice a day, cetuximab i.p. 100 mg/kg twice a week, 2 weeks; Day 1 = first administration
Procedure: Human renal cancer cell line ACHN (obtained from Dainippon Pharmaceutical) was cultured in RPMI1640 (containing 10% FBS) in a 5% carbon dioxide incubator at 37° C. to about 80% confluence, and the cells were collected with trypsin-EDTA. Using a phosphate buffer, 1×10^8 cells/mL suspension was prepared, and 0.1 mL each of the resulting cell suspension was subcutaneously transplanted to a nude mouse at the side of its body.
Tumor Volume TV=Major axis of tumor(mm)×(Minor axis of tumor)^2 (mm^2)/2

[7] = tested on: HCT116-C9; experiment: Cross-resistance in E7070-resistant cell line, antiproliferative activity by MTT method; assay type: cell-based, human; settings: Example 11, 72 hours
Procedure: An E7070-resistant cell line was used to assess the antiproliferative activities of E7820, LY186641, LY295501, LY-ASAP and CQS. HCT116-C9 was a substrain separated from human colon cancer-derived HCT116 (American Type Culture Collection, Manassas, Va., U.S.A.). This HCT116-C9 was cultured in the presence of E7070 while increasing the E7070 concentration by degrees, thereby obtaining E7070-resistant substrains HCT116-C9-C1 and HCT116-C9-C4 (Molecular Cancer Therapeutics, 2002, 1, 275-286).
Three cell lines, i.e., HCT116-C9, HCT116-C9-C1 and HCT116-C9-C4, were each seeded at 3000 cells/well onto a 96-well microplate (flat bottom) (50 μl/well). Twenty-four hours later, they were added with a 3-fold dilution series of each compound (50 μl/well). Seventy-two hours later, the antiproliferative activities were assessed by MTT method (Mossmann T., J. Immunol. Methods, 1983, 65, 55-63). The 50% growth inhibitory concentrations to the cancer cells were obtained by a least square method.
In exactly the same manner as in Example 10, an E7070-resistant cell line was used to assess the antiproliferative activities of LY573636 as well as those of E7070.

In the case of Cc1ccc(NS(=O)(=O)c2cccc(C#N)c2)c2[nH]cc(C#N)c12 [E7820, N-(3-cyano-4-methyl-1H-indole-7-yl)-3-cyanobenzenesulfonamide], the “Relative tumor volume on Day 22 Average ± standard deviation” value [1] is reported as 3.69 ± 0.68, the “Relative tumor volume on Day 15 Average ± standard deviation” value [2] is reported as 3.3 ± 0.6 and the “similarity of changes in gene expression (cosine correlation, cluster analysis) among E7070, E7820, LY186641, LY295501, LY573636 and CQS” value (from here on “similarity of changes in gene expression”) [3] is reported as “very similar genetic alterations”. For the same compound, the “Relative tumor volume on Day 15 Average ± standard deviation” value [4] was 2.57 ± 0.41, the “Relative tumor volume on Day 15 Average ± standard deviation” value [5] was 2.62 ± 0.07 and the “Relative tumor volume on Day 15 Average ± standard deviation” value [6] was 1.3 ± 0.2.

C#Cc1cccc(Nc2ncnc3cc(OCCOC)c(OCCOC)cc23)c1 [Erlotinib, 4-(3-ethynylphenylamino)-6,7-bis(2-methoxyethoxy)-quinazoline, reference compound] was tested, and the “Relative tumor volume on Day 15 Average ± standard deviation” value [5] was 1.94 ± 0.19.

For O=C(Nc1ccc(Cl)cc1)NS(=O)(=O)c1ccc2c(c1)CCC2 [LY186641, N-[[(4-chlorophenyl)amino]carbonyl]-2,3-dihydro-1H-indene-5-sulfonamide], the “similarity of changes in gene expression” value [3] was “very similar genetic alterations”.

For NS(=O)(=O)c1ccc(S(=O)(=O)Nc2cccc3c(Cl)c[nH]c23)cc1 [E7070, N-(3-chloro-1H-indole-7-yl)-4-sulfamoylbenzenesulfonamide], the “similarity of changes in gene expression” value [3] was “very similar genetic alterations” and the IC50 [7] was 127 nM.

In the case of O=C(NS(=O)(=O)c1ccc(Br)s1)c1ccc(Cl)cc1Cl [LY573636, N-(2,4-dichlorobenzoyl)-5-bromothiophene-2-sulfonamide], the “similarity of changes in gene expression” value [3] is reported as “very similar genetic alterations”.

For COc1cc2ncnc(Nc3ccc(F)c(Cl)c3)c2cc1OCCCN1CCOCC1 [Gefitinib, 4-(3-chloro-4-fluorophenylamino)-7-methoxy-6-(3-(4-morpholino)propoxy-quinazoline), reference compound], the “Relative tumor volume on Day 22 Average ± standard deviation” value [1] was 2.26 ± 0.59 and the “Relative tumor volume on Day 15 Average ± standard deviation” value [4] was 0.36 ± 0.12.

In the case of Nc1ccc(S(=O)(=O)Nc2cnc3c(Cl)cccc3n2)cc1 [CQS, 2-sulfanylamide-5-chloroquinoxaline], the “similarity of changes in gene expression” value [3] is reported as “very similar genetic alterations”.

With O=C(Nc1ccc(Cl)c(Cl)c1)NS(=O)(=O)c1ccc2c(c1)CCO2 [LY295501, N-[[(3,4-dichlorophenyl)amino]carbonyl]-2,3-dihydrobenzofuran-5-sulfonamide] the “similarity of changes in gene expression” value [3] was “very similar genetic alterations”.
